Structures are written as SMILES.

Assay [1] deals with RNA Seq6 (RNA, single strand) UGAAGGAAGGU
Kind of assay: fluorescence polarization. The note with it: 100 mM NaCl; 20 mM HEPES, 25 °C, 0.5 μM compound. For orientation: Fluorescence polarisation rises when a labelled molecule tumbles more slowly, as on binding a larger partner.

For assay [2], the system named is DNA Seq6 (DNA, single strand) TGAAGGAAGGT
Nature of the assay: fluorescence polarization. The conditions noted are these: 100 mM NaCl, 1 mM MgCl2; 20 mM HEPES, 25 °C, 0.5 μM compound.

Assay [3] concerns RNA Seq4 (RNA, single strand) AAGAAGGAAGGUGC
Kind of assay: fluorescence polarization. The conditions noted are these: 100 mM NaCl; 20 mM HEPES, 25 °C, 0.5 μM compound.

The test system of assay [4] is RNA Seq6 (RNA, single strand) UGAAGGAAGGU
Kind of assay: fluorescence polarization. The note with it: 100 mM NaCl; 20 mM HEPES, 25 °C, 0.5 μM compound. This is another data set of the same source.

Assay [5] deals with DNA Seq6 (DNA, single strand) TGAAGGAAGGT
Nature of the assay: fluorescence polarization. The note with it: 100 mM NaCl, 1 mM MgCl2; 20 mM HEPES, 25 °C, 0.5 μM compound. This is another data set of the same source.

Assay [6] relates to RNA Seq4 (immobilised) (RNA, single strand) AAGAAGGAAGGUGC
Kind of assay: SPR, immobilised RNA. The conditions noted are these: running buffer not shown; SMN-C5 up to 40 μM. For orientation: In SPR one partner is held on a chip, and binding of the other changes the refractive index at the surface.

Assay [7] has as its system DNA Seq6 (DNA, single strand) TGAAGGAAGGT
Nature of the assay: competitive fluorescence polarization. The conditions noted are these: 100 mM NaCl, 1 mM MgCl2, 20 mM HEPES, tracer 0.5 μM SMN-C2 displaced from 25 μM DNA Seq6.

Take `Cc1cn2cc(-c3cc4ccc(N5CCN[C@@H](C)C5)cc4oc3=O)nc2c(C)n1`: the figures for the Kd in assay [1], in assay [2] and in assay [3] were 18.5 ± 5.4 µM, 2.9 ± 0.3 µM and 25.4 ± 7.3 µM, respectively.
Turning to `Cc1c(-c2ccc(Cl)cc2)c(=O)oc2cc(N3CCN(C)CC3)ccc12`, the Kd in assay [4] and in assay [5] was > >100 μM throughout.
Regarding `CN1CCN(c2cc(F)c3cc(-c4ccc(Cl)cc4)c(=O)oc3c2)CC1`, the Kd (as a rule, the equilibrium constant for the complex coming apart) in assay [4] was determined as 30.9 ± 6.7 µM; in assay [5], 9.9 ± 0.9 µM.
In the case of `CN1CCN(c2ccc3cc(-c4cccc(Cl)c4)c(=O)oc3c2)CC1`, the results for the Kd in assay [4] and in assay [5] were 35.9 ± 14.8 µM and 13.9 ± 1.1 µM, respectively.
In the same order, the values of `CN1CCN(c2cc(F)c3cc(-c4cccc(Cl)c4)c(=O)oc3c2)CC1` are 32.8 ± 5.6 µM and 18.7 ± 4.0 µM.
`Cc1c(-c2cccc(Cl)c2)c(=O)oc2cc(N3CCN(C)CC3)ccc12`: the Kd in assay [4] and in assay [5] was > >100 μM in each case.
Regarding `Cc1cn2cc(-c3cc(=O)n4cc(N5CCN(C)CC5)ccc4n3)cc(F)c2n1`, the Kd in assay [6] came out at 8.0 µM. Moreover, in assay [7], the apparent Kd (in general, a dissociation constant that holds for the conditions of the assay) came out at 5.8 ± 2.5 µM.
For `Cc1cn2cc(-c3cc4ccc(N5CCN(CCNC(=O)OC(C)(C)C)[C@@H](C)C5)cc4oc3=O)nc2c(C)n1`, the Kd is 51.2 ± 4.9 µM in assay [4], 4.0 ± 0.3 µM in assay [5] and 37.5 ± 14.0 µM in assay [3].
`CN1CCN(c2ccc3cc(-c4ccccc4Cl)c(=O)oc3c2)CC1`: the Kd in assay [2] is greater than 100 µM; in assay [4] it was > >100 μM.
With `COc1cn2cc(-c3cc4ccc(N5CCNCC5)cc4oc3=O)nc2cn1`, the figures for the Kd in assay [2] and in assay [4] were 1.4 ± 0.2 µM and 11.4 ± 0.7 µM, respectively.
Take `CN1CCN(c2ccc3cc(-c4ccc(Cl)cc4)c(=O)oc3c2)CC1`: the dissociation constant Kd in assay [4] was 30.6 ± 12.3 µM; in assay [5], 8.2 ± 0.7 µM.
In the same order, the values of `O=c1oc2cc(N3CCNCC3)ccc2cc1-c1cn2ccccc2n1` are 14.5 ± 2.3 µM and 2.8 ± 0.5 µM.

For the origin of these results see article PMC8373063 (2021).
